Results from patent publication US20240329286A1, “LIGHT ABSORPTION FILTER, OPTICAL FILTER, MANUFACTURING METHOD FOR OPTICAL FILTER, ORGANIC ELECTROLUMINESCENT DISPLAY DEVICE, INORGANIC ELECTROLUMINESCENT DISPLAY DEVICE, AND LIQUID CRYSTAL DISPLAY DEVICE” (FUJIFILM Corporation, priority 2022, published 2024).

Experiment: pKaH (pKa of the conjugate acid) by titration with sodium hydroxide aqueous solution
Format: physicochemical
Conditions: water/methanol=50/50 (volume ratio), 25° C.
From the text: The pKa can be calculated by dropwise adding a 0.01 mol/L sodium hydroxide aqueous solution to a mixed solution of water/methanol=50/50 (in terms of volume ratio) of a measurement sample (a conjugate acid of the compound B) and reading the amount of the sodium hydroxide aqueous solution that has been dropwise added up to the half-equivalent point.

Compound	pKaH
c1ccc(-c2ccnc3ccccc23)cc1 [4-Phenylquinoline]	4.3

Same assay, conditions: water/methanol=50/50 (volume ratio), 25° C., Table 2

Compound	pKaH of compound B
Cc1cc(C)c2ccccc2n1 [2,4-dimethylquinoline]	5.7
Cc1ccc2ccccc2n1 [2-methylquinoline]	4.8
Cc1cc2ccccc2cn1 [3-methylisoquinoline]	5.2

The remaining lines, values ahead:

pKaH of compound B	Compound
5.1	Cc1ccnc2ccccc12 [4-methylquinoline]
4.7	c1ccc2cnccc2c1 [Isoquinoline]
4.2	c1ccc2ncccc2c1 [Quinoline]
